From patent US10183947B2, “Pyrazole derivatives useful as 5-lipoxygenase activating protein (FLAP) inhibitors” (ASTRAZENECA AB, priority 2015, dated 2019)
Read-outs that look alike come from different tables or passages of the source.

How the values were obtained:
[1] = molecular target: FLAP (human ALOX5AP expressed in COS-7 cell membranes) (Homo sapiens (Human), UniProt P20292); assay: FLAP Binding Assay (Test A), competition binding with 3H-MK591 as tracer; conditions: competition with 3H-MK591 (2 nM), membranes from COS-7 cells expressing human ALOX5AP, 60 min at rt
Experimental: FLAP Binding Assay (Test A) Compounds were tested in a competition binding assay using ^3H-MK591 as tracer. […] Med. Chem. […] A 100,000×g pellet from COS-7 cells stably transfected with a plasmid expressing human ALOX5AP was the source of FLAP. […] Following filtration, filter plates were dried 12 h at RT (or 50° C. for 1 hour). 50 μL scintillant was then added, the filterplates were sealed and radioactivity was measured in a microbeta counter. Specific binding was defined as total binding minus non-specific binding. Total binding was defined as ^3H-MK591 bound to membranes in the absence of competitor, non-specific binding was defined as ^3H-MK591 in the presence of 0.1 mM MK-591. IC50 values were determined by plotting % inhibition versus log compound concentration and using a one site dose response model.

[2] = system: LTB4 production in fresh human whole blood; assay: FLAP Whole Blood Assay (Test B), inhibition of LTB4 production; format: cell-based; conditions: then calcium ionophore A23187, LTB4 by EIA
Experimental: FLAP Whole Blood Assay (Test B)
Compounds were tested for the inhibition of LTB4 production in fresh human whole blood obtained by venapuncture using heparin to prevent clotting. 1.5 μL compounds or DMSO carrier were dispensed into the wells of a 96-well deep-well plate in 3-fold dilution series. 500 μL hepamised whole blood was then added followed by incubation at 37° C. for 30 min (method A) or 4 h (method B). 100 μL blood was subsequently transferred in triplicate to pre-dispensed 0.5 μL 2 mM calcium ionophore (calcimycin; A23187) in a second 96-well plate. Following incubation at 37° C. for 20 min, the assays were stopped by adding 10 μL of stop solution (100 mM EGTA, pH 7.4) and the plate was transferred to ice. The plate was centrifuged at 3000 rpm at 4° C. for 10 min and […] was transferred to a fresh 96 well plate containing 90 μL pre-dispensed EIA assay buffer (0.1 M phosphate buffer+0.1% BSA). LTB4 was then measured using reagents from a commercial EIA (Cayman Chemicals). LTB4 production was defined as the LTB4 level in the presence of a given concentration of test compound minus the LTB4 level in the presence of 50 nM 5-[[4-[(2S,4R)-4-hydroxy-2-methyl-tetrahydropyran-4-yl]-2-thienyl]sulfanyl]-1-methyl-indolin-2-one. (Preparation of 5-[[4-[(2S,4R)-4-hydroxy-2-methyl-tetrahydropyran-4-yl]-2-thienyl]sulfanyl]-1-methyl-indolin-2-one was described in Org. Process Res. Dev., 2005, 9, 555-569 or EP623614 B1). Inhibition of LTB4 production was defined as the LTB4 level in the presence of a given concentration of test compound expressed as a % of the LTB4 level in the presence of DMSO. IC50 values were determined by plotting % inhibition versus log compound concentration and using a one site dose response model.

[3] = method B: compound incubated with human whole blood at 37° C. for 4 h, read-out: IC50 nM (method B)
[4] = 0.5 h, method A: compound incubated with human whole blood at 37° C. for 30 min, read-out: IC50 nM (method A)

Chain of FLAP (human ALOX5AP expressed in COS-7 cell membranes) (P20292 whole entry): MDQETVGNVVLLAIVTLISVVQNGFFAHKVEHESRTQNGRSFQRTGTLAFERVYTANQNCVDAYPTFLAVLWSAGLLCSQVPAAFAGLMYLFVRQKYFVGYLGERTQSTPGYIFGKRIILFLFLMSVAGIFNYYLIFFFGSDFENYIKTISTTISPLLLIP

| SMILES | IC50 [1] | IC50 [2, 3] | IC50 [2, 4] |
| --- | --- | --- | --- |
| Cn1cc(NC(=O)[C@@H]2CCCC[C@H]2C(=O)c2ccc(-c3ccn[nH]3)cc2)c(S(N)(=O)=O)n1 [Example 26, (1R,2R)—N-(1-Methyl-3-sulfamoyl-1H-pyrazol-4-yl)-2-[4-(1H-pyrazol-5-yl)benzoyl]cyclohexanecarboxamide] | 290 nM | 250 nM | – |
| Cc1onc(NC(=O)C2CCCCC2C(=O)c2ccc(-c3ccn[nH]3)cc2F)c1C(N)=O (single isomer, unassigned) [Example 41, 3-[({(1R,2R or 1S,2S)-2-[2-Fluoro-4-(1H-pyrazol-5-yl)benzoyl]-cyclohexyl}carbonyl)amino]-5-methyl-1,2-oxazole-4-carboxamide] | 160 nM | 272 nM | – |
| CNC(=O)c1c(NC(=O)[C@@H]2CCCC[C@H]2C(=O)c2ccc(-c3cc(C)[nH]n3)cc2)cnn1C [Example 21, N,1-Dimethyl-4-[({(1R,2R)-2-[4-(5-methyl-1H-pyrazol-3-yl)benzoyl]-cyclohexyl}carbonyl)amino]-1H-pyrazole-5-carboxamide] | 230 nM | – | 360 nM |
| Cc1cc(-c2ccc(C(=O)[C@@H]3CCCC[C@H]3C(=O)Nc3nnco3)cc2)[nH]n1 [Example 43, (1R,2R)-2-[4-(3-Methyl-1H-pyrazol-5-yl)benzoyl]-N-(1,3,4-oxadiazol-2-yl)cyclohexanecarboxamide] | 140 nM | 904 nM | – |
| Cn1cc(NC(=O)C2CCCCC2C(=O)c2ccc(-c3cc[nH]n3)cc2)c(C#N)n1 (single isomer, unassigned) [Example 12, (1R,2R or 1S,2S)—N-(3-Cyano-1-methyl-1H-pyrazol-4-yl)-2-[4-(1H-pyrazol-3-yl)benzoyl]cyclohexanecarboxamide] | 41 nM | 100 nM | – |
| Cc1cc(NC(=O)C2CCCCC2C(=O)c2ccc(-c3ccn[nH]3)cc2)on1 (racemic) [Example 44, (1R,2R and 1S,2S)—N-(3-Methyl-1,2-oxazol-5-yl)-2-[4-(1H-pyrazol-5-yl)benzoyl]cyclohexanecarboxamide] | 46 nM | – | 197 nM |

More lines, in order of falling IC50 [1], values ahead:

| IC50 [1] | IC50 [2, 3] | IC50 [2, 4] | SMILES |
| --- | --- | --- | --- |
| 41 nM | 41 nM | – | Cn1ncc(NC(=O)C2CCCCC2C(=O)c2ccc(-c3ccn[nH]3)cc2F)c1C(N)=O (single isomer, unassigned) [Example 34, 4-[({(1R,2R or 1S,2S)-2-[2-Fluoro-4-(1H-pyrazol-5-yl)benzoyl]-cyclohexyl}carbonyl)amino]-1-methyl-1H-pyrazole-5-carboxamide] |
| 25 nM | 210 nM | – | CNS(=O)(=O)c1c(NC(=O)[C@@H]2CCCC[C@H]2C(=O)c2ccc(-c3cc(C)n[nH]3)cc2)cnn1C [Example 25, (1R,2R)—N-[1-Methyl-5-(methylsulfamoyl)-1H-pyrazol-4-yl]-2-[4-(3-methyl-1H-pyrazol-5-yl)benzoyl]cyclohexanecarboxamide] |
| 23 nM | – | 270 nM | Cc1cc(NC(=O)C2CCCCC2C(=O)c2ccc(-c3ccn[nH]3)cc2)sn1 (racemic) [Example 48, (1R,2R and 1S,2S)—N-(3-Methyl-1,2-thiazol-5-yl)-2-[4-(1H-pyrazol-5-yl)benzoyl]cyclohexanecarboxamide] |
| 9 nM | 34 nM | – | Cc1cc(-c2ccc(C(=O)C3CCCCC3C(=O)Nc3cnn4c3C(=O)NCC4)c(F)c2)[nH]n1 (single isomer, unassigned) [Example 39, (1R,2R or 1S,2S)-2-[2-Fluoro-4-(3-methyl-1H-pyrazol-5-yl)benzoyl]-N-(4-oxo-4,5,6,7-tetrahydropyrazolo[1,5-a]pyrazin-3-yl)cyclohexanecarboxamide] |
| 4.8 nM | 330 nM | – | Cc1nn2c(c1NC(=O)[C@@H]1CCCC[C@H]1C(=O)c1ccc(-c3cc[nH]n3)cc1)C(=O)NCC2 [Example 29, (1R,2R)—N-(2-Methyl-4-oxo-4,5,6,7-tetrahydropyrazolo[1,5-a]pyrazin-3-yl)-2-[4-(1H-pyrazol-5-yl)benzoyl]cyclohexanecarboxamide] |
